Assay in all cases: biochemical
Test [1] has as its target KRas G12D (Homo sapiens, UniProt P01116, G12D).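 Note: TR-FRET displacement binding assay on KRas, read after a one-hour incubation at room temperature, IC50 fitted from percent-of-control values.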
Procedure: (§1) The ability of a compound to bind to KRas was measured using a TR-FRET displacement assay. […] After a 60-minute incubation at room temperature, the reaction was measured using a BMG LABTECH CLARIO star Plus via TR-FRET. […] The POC values were fit to a 4-parameter IC50 equation and the IC50 value reported.
Test [2] has as its target KRas G12V (Homo sapiens, UniProt P01116, G12V).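 Note: KRas binding measured by TR-FRET displacement at room temperature, IC50 fitted from percent of control values.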
Procedure: as §1
The target of test [3] is KRas G12R (Homo sapiens, UniProt P01116, G12R).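 Note: TR-FRET displacement assay of compound binding to KRas, read after one hour at room temperature, potency from a four-parameter fit of percent-of-control values.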
Chain of KRas G12R (P01116 1-169 isoform P01116-2 G12R): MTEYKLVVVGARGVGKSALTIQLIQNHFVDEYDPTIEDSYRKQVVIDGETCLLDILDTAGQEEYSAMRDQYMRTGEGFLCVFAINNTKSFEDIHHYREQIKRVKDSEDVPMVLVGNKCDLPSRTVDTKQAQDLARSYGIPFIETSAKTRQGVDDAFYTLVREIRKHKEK
Procedure: as §1
Test [4] addresses KRas G12C (Homo sapiens, UniProt P01116, G12C).
Procedure: as §1
For test [5], the target named is KRas WT (Homo sapiens, UniProt P01116).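 Note: binding to KRas read as TR-FRET displacement after a one-hour room-temperature incubation, IC50 derived from percent-of-control values.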
Chain of KRas WT (P01116 1-169 isoform P01116-2): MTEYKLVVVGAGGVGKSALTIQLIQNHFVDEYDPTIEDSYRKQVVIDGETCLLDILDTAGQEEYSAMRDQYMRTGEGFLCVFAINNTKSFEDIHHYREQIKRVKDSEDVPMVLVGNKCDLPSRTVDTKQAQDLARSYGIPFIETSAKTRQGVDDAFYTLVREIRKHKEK
Procedure: as §1

This is an account of results in patent publication US12398154B2, “Azaquinazoline pan-KRas inhibitors” (Mirati Therapeutics, Inc., priority 2020, dated 2025).

pIC50: −log10 of the molar value.

Chain of KRas G12V (P01116 1-169 isoform P01116-2 G12V): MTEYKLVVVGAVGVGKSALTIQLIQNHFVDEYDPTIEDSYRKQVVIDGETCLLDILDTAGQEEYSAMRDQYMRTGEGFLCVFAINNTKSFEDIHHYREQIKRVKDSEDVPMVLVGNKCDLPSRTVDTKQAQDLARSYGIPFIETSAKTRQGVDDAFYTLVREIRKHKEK
Chain of KRas G12D (P01116 1-169 isoform P01116-2 G12D): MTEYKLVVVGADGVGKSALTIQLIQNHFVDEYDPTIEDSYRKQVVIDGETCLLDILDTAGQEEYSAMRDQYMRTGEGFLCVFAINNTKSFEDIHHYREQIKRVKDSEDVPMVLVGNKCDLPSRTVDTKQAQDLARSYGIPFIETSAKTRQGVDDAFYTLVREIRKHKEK
Chain of KRas G12C (P01116 1-169 isoform P01116-2 G12C): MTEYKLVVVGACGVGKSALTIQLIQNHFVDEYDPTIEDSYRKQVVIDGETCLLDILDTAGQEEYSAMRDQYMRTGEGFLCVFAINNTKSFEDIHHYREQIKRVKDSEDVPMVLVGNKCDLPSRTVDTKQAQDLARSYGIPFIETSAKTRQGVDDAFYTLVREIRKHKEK

For the molecule `CC1CCCN(c2nc(OCC34CCCN3CCC4)nc3c(F)c(-c4cccc5cccc(F)c45)ncc23)C1` (stereo not shown) [Example 22, 8-fluoro-7-(8-fluoronaphthalen-1-yl)-2-((hexahydro-1H-pyrrolizin-7a-yl)methoxy)-4-(3-methylpiperidin-1-yl)pyrido[4,3-d]pyrimidine], the pIC50 was 5.00 in test [1], 4.92 in test [2], 4.83 in test [3] and 4.21 in test [4].
On the same counts, the results for `OC1CCCN(c2nc(OCC34CCCN3CCC4)nc3c(F)c(-c4cccc5cccc(F)c45)ncc23)C1` (stereo not shown) [Example 23, 1-(8-fluoro-7-(8-fluoronaphthalen-1-yl)-2-((hexahydro-1H-pyrrolizin-7a-yl)methoxy)pyrido[4,3-d]pyrimidin-4-yl)piperidin-3-ol] are 5.28, 5.37, 5.21 and 5.32.
Consider `C#Cc1cccc2cccc(-c3ncc4c(N5CCCC(C)(O)C5)nc(OCC56CCCN5CCC6)nc4c3F)c12` (stereo not shown) [Example 55], for which the pIC50 in test [1] was 6.86; in test [2], 6.67; in test [3] it was 6.39; in test [4] it was 6.53.
On the same counts, the results for `CC1(O)CCCCN(c2nc(OCC34CCCN3CCC4)nc3c(F)c(-c4cccc5cccc(F)c45)ncc23)C1` (stereo not shown) [Example 65, 1-(8-fluoro-7-(8-fluoronaphthalen-1-yl)-2-((hexahydro-1H-pyrrolizin-7a-yl)methoxy)pyrido[4,3-d]pyrimidin-4-yl)-3-methylazepan-3-ol] are 4.85, 4.82, 4.35 and 4.68.
The matching figures for `CC1(O)CCCN(c2nc(OCC34CCCN3CCC4)nc3c(F)c(-c4cccc5sc(N)nc45)ncc23)C1` (stereo not shown) [Example 67, 1-(7-(2-aminobenzo[d]thiazol-4-yl)-8-fluoro-2-((hexahydro-1H-pyrrolizin-7a-yl)methoxy)pyrido[4,3-d]pyrimidin-4-yl)-3-methylpiperidin-3-ol]: 4.98, 4.94, 4.79 and 4.85.
The matching figures for `Fc1c(-c2cccc3cccc(F)c23)ncc2c(N3CC(n4ccnc4)C3)nc(OCC34CCCN3CCC4)nc12` [Example 75, 4-(3-(1H-imidazol-1-yl)azetidin-1-yl)-8-fluoro-7-(8-fluoronaphthalen-1-yl)-2-((hexahydro-1H-pyrrolizin-7a-yl)methoxy)pyrido[4,3-d]pyrimidine]: 4.20, 5.62, 6.01 and 5.74.
As for `Fc1c(-c2cccc3cccc(F)c23)ncc2c(N3CCCC4(CSC4)C3)nc(OCC34CCCN3CCC4)nc12` [Example 262, 6-(8-fluoro-7-(8-fluoronaphthalen-1-yl)-2-((hexahydro-1H-pyrrolizin-7a-yl)methoxy)pyrido[4,3-d]pyrimidin-4-yl)-2-thia-6-azaspiro[3.5]nonane], the pIC50 in test [1] was 6.02; in test [2] it was 5.75; in test [3] it was 5.78; in test [5], 5.81.
As for `OC[C@@H]1CCCN(c2nc(OCC34CCCN3CCC4)nc3c(F)c(-c4cccc5cccc(F)c45)ncc23)C1` [Example 268, (R)-(1-(8-fluoro-7-(8-fluoronaphthalen-1-yl)-2-((hexahydro-1H-pyrrolizin-7a-yl)methoxy)pyrido[4,3-d]pyrimidin-4-yl)piperidin-3-yl)methanol], the pIC50 in test [1] is 4.95; in test [2], 5.19; in test [3], 5.05.
Consider `CS(=O)(=O)C1COCCN(c2nc(OCC34CCCN3CCC4)nc3c(F)c(-c4cccc5cccc(F)c45)ncc23)C1` (stereo not shown) [Example 271, 4-(8-fluoro-7-(8-fluoronaphthalen-1-yl)-2-((hexahydro-1H-pyrrolizin-7a-yl)methoxy)pyrido[4,3-d]pyrimidin-4-yl)-6-(methylsulfonyl)-1,4-oxazepane], for which the pIC50 is 5.61 in test [1], 5.61 in test [2], 5.11 in test [3] and 5.52 in test [5].
As to `NC(=O)[C@H]1CCCN(c2nc(OCC34CCCN3CCC4)nc3c(F)c(-c4cccc5cccc(F)c45)ncc23)C1` [Example 273, (S)-1-(8-fluoro-7-(8-fluoronaphthalen-1-yl)-2-((hexahydro-1H-pyrrolizin-7a-yl)methoxy)pyrido[4,3-d]pyrimidin-4-yl)piperidine-3-carboxamide], the pIC50 in test [1] was 5.29; in test [2], 5.64; in test [3], 5.28; in test [5] it was 5.51.
The matching figures for `CN(C)C(=O)n1cc2c(n1)CCCN(c1nc(OCC34CCCN3CCC4)nc3c(F)c(-c4cccc5cccc(F)c45)ncc13)C2` [Example 274, 5-(8-fluoro-7-(8-fluoronaphthalen-1-yl)-2-((hexahydro-1H-pyrrolizin-7a-yl)methoxy)pyrido[4,3-d]pyrimidin-4-yl)-N,N-dimethyl-5,6,7,8-tetrahydropyrazolo[4,3-c]azepine-2(4H)-carboxamide]: 6.43, 6.06, 5.56 and 4.83.
For the molecule `O=S1(=O)CCC(Nc2nc(OCC34CCCN3CCC4)nc3c(F)c(-c4cccc5cccc(F)c45)ncc23)C1` (stereo not shown) [Example 279, 3-((8-fluoro-7-(8-fluoronaphthalen-1-yl)-2-((hexahydro-1H-pyrrolizin-7a-yl)methoxy)pyrido[4,3-d]pyrimidin-4-yl)amino)tetrahydrothiophene 1,1-dioxide], the pIC50 is 4.46 in test [1], 5.47 in test [2] and 5.44 in test [3].
For the molecule `CCc1cccc2cccc(-c3ncc4c(N5CCCOCC5)nc(OCC56CCCN5CCC6)nc4c3F)c12` [Example 334, 4-(7-(8-ethylnaphthalen-1-yl)-8-fluoro-2-((hexahydro-1H-pyrrolizin-7a-yl)methoxy)pyrido[4,3-d]pyrimidin-4-yl)-1,4-oxazepane], the pIC50 in test [1] is 5.83; in test [2] it was 6.16; in test [3], 6.13.
The matching figures for `O=C1CC2CCN(c3nc(OCC45CCCN4CCC5)nc4c(F)c(-c5cccc6cccc(F)c56)ncc34)CC2C(=O)N1` (stereo not shown) [Example 335, 7-(8-fluoro-7-(8-fluoronaphthalen-1-yl)-2-((hexahydro-1H-pyrrolizin-7a-yl)methoxy)pyrido[4,3-d]pyrimidin-4-yl)hexahydro-2,7-naphthyridine-1,3(2H,4H)-dione]: 5.11, no more than 4.00 and 4.07.
The matching figures for `CCc1c(F)ccc2cc(O)cc(-c3ncc4c(NCCC5CCNC5=O)nc(OC[C@@]56CCCN5C[C@H](F)C6)nc4c3F)c12` (stereo partly drawn) [Example 375, 3-(2-((7-(8-ethyl-7-fluoro-3-hydroxynaphthalen-1-yl)-8-fluoro-2-(((2R,7aS)-2-fluorohexahydro-1H-pyrrolizin-7a-yl)methoxy)pyrido[4,3-d]pyrimidin-4-yl)amino)ethyl)pyrrolidin-2-one]: 7.36, 8.10 and 8.05.
On the same counts, the results for `CC1(O)CCCN(c2nc(OCC34CCCN3CCC4)nc3c(F)c(-c4cc(O)ccc4F)ncc23)C1` (stereo not shown) [Example 429, 1-(8-fluoro-7-(2-fluoro-5-hydroxyphenyl)-2-((tetrahydro-1H-pyrrolizin-7a(5H)-yl)methoxy)pyrido[4,3-d]pyrimidin-4-yl)-3-methylpiperidin-3-ol] are 5.61, 5.35 and 5.08.
For `O=C1CC2(CCCN(c3nc(OCC45CCCN4CCC5)nc4c(F)c(-c5cccc6cccc(CO)c56)ncc34)C2)N1` (stereo not shown) [Example 433, 6-(8-fluoro-2-((hexahydro-1H-pyrrolizin-7a-yl)methoxy)-7-(8-(hydroxymethyl)naphthalen-1-yl)pyrido[4,3-d]pyrimidin-4-yl)-1,6-diazaspiro[3.5]nonan-2-one], the pIC50 in test [1] is 5.06; in test [2], 5.00; in test [3], 4.81.
Take `N#Cc1cccc2cccc(-c3ncc4c(N5CCCC(c6nc[nH]n6)C5)nc(OCC56CCCN5CCC6)nc4c3F)c12` (stereo not shown) [Example 456, 8-(4-(3-(1H-1,2,4-triazol-3-yl)piperidin-1-yl)-8-fluoro-2-((hexahydro-1H-pyrrolizin-7a-yl)methoxy)pyrido[4,3-d]pyrimidin-7-yl)-1-naphthonitrile]: the pIC50 in test [1] was 4.31; in test [2], 4.97; in test [3], 5.20.
On the same counts, the results for `NS(=O)(=O)CC1CCCN(c2nc(OCC34CCCN3CCC4)nc3c(F)c(-c4cccc5cccc(C(F)(F)F)c45)ncc23)C1` (stereo not shown) [Example 465, 1-(1-(8-fluoro-2-((hexahydro-1H-pyrrolizin-7a-yl)methoxy)-7-(8-(trifluoromethyl)naphthalen-1-yl)pyrido[4,3-d]pyrimidin-4-yl)piperidin-3-yl)methanesulfonamide] are 4.81, 5.21 and 5.00.
On the same counts, the results for `CCc1c(F)ccc2cc(O)cc(-c3ncc4c(N5CCN6C(C5)C(=O)NC6(C)C)nc(OC[C@@]56CCCN5C[C@H](F)C6)nc4c3F)c12` (stereo partly drawn) [Example 489, 7-(7-(8-ethyl-7-fluoro-3-hydroxynaphthalen-1-yl)-8-fluoro-2-(((2R,7aS)-2-fluorohexahydro-1H-pyrrolizin-7a-yl)methoxy)pyrido[4,3-d]pyrimidin-4-yl)-3,3-dimethylhexahydroimidazo[1,5-a]pyrazin-1(5H)-one] are 6.66, 6.82 and 6.51.
